In ChEMBL document CHEMBL3745645, “Synthesis, in vitro antitumor activity, dihydrofolate reductase inhibition, DNA intercalation and structure-activity relationship studies of 1,3,5-triazine analogues” (Bioorg Med Chem Lett, 2016):
Active and inactive are the calls of the source. The rule behind the calls is not given here.

How the values were obtained:
[1] = Cytotoxicity against human HOP92 cells at 10 uM after 48 hrs by SRB assay; format: functional; conditions: HOP-92, 48 h, read-out: GI
Malme-3M = experiment: Cytotoxicity against human MALME-3M cells at 10 uM after 48 hrs by SRB assay; format: functional; conditions: read-out: GI
SR = experiment: Cytotoxicity against human SR cells after 48 hrs by SRB assay; format: functional
[2] = (§1) Cytotoxicity against human OVCAR4 cells at 10 uM after 48 hrs by SRB assay; format: functional; conditions: OVCAR-4, 48 h, read-out: GI
[3] = Cytotoxicity against human NCI-ADR-RES cells at 10 uM after 48 hrs by SRB assay; format: functional; conditions: read-out: GI
BT-549 = experiment: (§2) Cytotoxicity against human BT549 cells at 10 uM after 48 hrs by SRB assay; format: functional
[4] = (§3) Cytotoxicity against human HCC2998 cells at 10 uM after 48 hrs by SRB assay; format: functional; conditions: HCC 2998, 48 h, read-out: GI
[5] = Cytotoxicity against human SNB75 cells at 10 uM after 48 hrs by SRB assay; format: functional; conditions: SNB-75, 48 h, read-out: GI
[6] = Cytotoxicity against human HL-60(TB) cells after 48 hrs by SRB assay; format: functional; conditions: HL-60, 48 h, read-out: LC50 (the source's name)
[7] = (§4) Cytotoxicity against human RPMI8226 cells at 10 uM after 48 hrs by SRB assay; format: functional; conditions: RPMI-8226, 48 h, read-out: GI
K562 = experiment: Cytotoxicity against human K562 cells at 10 uM after 48 hrs by SRB assay; format: functional; conditions: K562, 48 h, read-out: GI
NCI-H226 = experiment: Cytotoxicity against human NCI-H226 cells at 10 uM after 48 hrs by SRB assay; format: functional; conditions: NCI-H226, 48 h, read-out: GI
A549 = experiment: Cytotoxicity against human A549 cells at 10 uM after 48 hrs by SRB assay; format: functional; conditions: A549, 48 h, read-out: GI
CCRF-CEM [8] = experiment: Cytotoxicity against human CCRF-CEM cells at 10 uM after 48 hrs by SRB assay; format: functional; conditions: read-out: GI
[9] = Cytotoxicity against human IGROV1 cells after 48 hrs by SRB assay; format: functional; conditions: IGROV-1, 48 h, pooled result: one value given for 7 cell lines, strains, targets or settings
KM12 = experiment: Cytotoxicity against human KM12 cells at 10 uM after 48 hrs by SRB assay; format: functional; conditions: KM12, 48 h, read-out: GI
[10] = Cytotoxicity against human SF295 cells at 10 uM after 48 hrs by SRB assay; format: functional; conditions: SF-295, 48 h, read-out: GI
NCI-H460 = experiment: Cytotoxicity against human NCI-H460 cells at 10 uM after 48 hrs by SRB assay; format: functional; conditions: NCI-H460, 48 h, read-out: GI
MDA-MB-231 = experiment: Cytotoxicity against human MDA-MB-231 cells at 10 uM after 48 hrs by SRB assay; format: functional; conditions: MDA-MB-231, 48 h, read-out: GI
SK-MEL-5 = experiment: Cytotoxicity against human SK-MEL-5 cells at 10 uM after 48 hrs by SRB assay; format: functional; conditions: SK-MEL-5, 48 h, read-out: GI
NCI-H522 = experiment: Cytotoxicity against human NCI-H522 cells at 10 uM after 48 hrs by SRB assay; format: functional; conditions: NCI-H522, 48 h, read-out: GI
[11] = Cytotoxicity against human MOLT4 cells after 48 hrs by SRB assay; format: functional; conditions: MOLT-4, 48 h, read-out: LC50 (the source's name)
TK-10 = experiment: (§5) Cytotoxicity against human TK10 cells at 10 uM after 48 hrs by SRB assay; format: functional
[12] = (§6) Cytotoxicity against human HCT15 cells at 10 uM after 48 hrs by SRB assay; format: functional; conditions: HCT-15, 48 h, read-out: GI
[13] = Cytotoxicity against human OVCAR3 cells at 10 uM after 48 hrs by SRB assay; format: functional; conditions: OVCAR-3, 48 h, read-out: GI
CCRF-CEM [14] = experiment: Cytotoxicity against human CCRF-CEM cells after 48 hrs by SRB assay; format: functional; conditions: for GI50 / TGI: pooled result: one value given for 6 cell lines, strains, targets or settings
MCF7 [15] = experiment: Cytotoxicity against human MCF7 cells at 10 uM after 48 hrs by SRB assay; format: functional; conditions: MCF7, 48 h, read-out: GI
HL-60(TB) = experiment: Cytotoxicity against human HL-60(TB) cells at 10 uM after 48 hrs by SRB assay; format: functional
SK-MEL-2 = experiment: Cytotoxicity against human SK-MEL-2 cells at 10 uM after 48 hrs by SRB assay; format: functional; conditions: SK-MEL-2, 48 h, read-out: GI
MCF7 [16] = experiment: Cytotoxicity against human MCF7 cells after 48 hrs by SRB assay; format: functional; conditions: MCF7, 48 h, pooled result: one value given for 6 cell lines, strains, targets or settings
[17] = Cytotoxicity against human IGROV1 cells at 10 uM after 48 hrs by SRB assay; format: functional; conditions: IGROV-1, 48 h, read-out: GI
[18] = Cytotoxicity against human UACC257 cells at 10 uM after 48 hrs by SRB assay; format: functional; conditions: UACC-257, 48 h, read-out: GI
[19] = Cytotoxicity against human DU145 cells at 10 uM after 48 hrs by SRB assay; format: functional; conditions: DU-145, 48 h, read-out: GI
[20] = as §2; format: functional; conditions: BT-549, 48 h, read-out: GI
RPMI-8226 = experiment: as §4; format: functional
Calf thymus DNA = experiment: Binding affinity to calf thymus DNA assessed as melting temperature by spectrophotometric analysis (reference value: 60 degC); format: nucleic-acid assay; conditions: Bos taurus
[21] = Cytotoxicity against human PC3 cells at 10 uM after 48 hrs by SRB assay; format: functional; conditions: PC-3, 48 h, read-out: GI
[22] = as §5; format: functional; conditions: TK-10, 48 h, read-out: GI
[23] = Cytotoxicity against human UACC62 cells at 10 uM after 48 hrs by SRB assay; format: functional; conditions: UACC-62, 48 h, read-out: GI
OVCAR-4 = experiment: as §1; format: functional
HCC 2998 = experiment: as §3; format: functional
NCI-H23 = experiment: Cytotoxicity against human NCI-H23 cells at 10 uM after 48 hrs by SRB assay; format: functional; conditions: NCI-H23, 48 h, read-out: GI
HCT-15 = experiment: as §6; format: functional

SMILES: Cc1nc2cc(Nc3nc(Nc4ccc(F)cc4)nc(-c4ccc(Cl)cc4)n3)ccc2n1Cc1ccccc1
- inhibition of growth at 10 µM [1]: 65%
- inhibition of growth at 10 µM (Malme-3M): 27.5%
- LC50 (concentration killing 50% of cells) (SR): > 100 µM
- inhibition of growth at 10 µM [2]: 41.4%
- inhibition of growth at 10 µM [3]: 41%
- growth inhibition (GI) (BT-549): inactive
- inhibition of growth at 10 µM [4]: 18.4%
- inhibition of growth at 10 µM [5]: 34.8%
- CC50 [6]: > 100 µM
- inhibition of growth at 10 µM [7]: 99.8%
- inhibition of growth at 10 µM (K562): 66.3%
- inhibition of growth at 10 µM (NCI-H226): 13.5%
- inhibition of growth at 10 µM (A549): 42.6%
- inhibition of growth at 10 µM (CCRF-CEM [8]): 96.1%
- GI50 [9]: 6.1 µM
- LC50 (concentration killing 50% of cells) [9]: 65.4 µM
- TGI [9]: 24.4 µM
- inhibition of growth at 10 µM (KM12): 62.8%
- inhibition of growth at 10 µM [10]: 9.63%
- inhibition of growth at 10 µM (NCI-H460): 28.9%
- inhibition of growth at 10 µM (MDA-MB-231): 34%
- inhibition of growth at 10 µM (SK-MEL-5): 16.6%
- inhibition of growth at 10 µM (NCI-H522): 17.2%
- CC50 [11]: > 100 µM
- growth inhibition (GI) (TK-10): inactive
- inhibition of growth at 10 µM [12]: 35.6%
- inhibition of growth at 10 µM [13]: 42.7%
- LC50 (CCRF-CEM [14]): > 100 µM
- GI50 (CCRF-CEM [14]): 3.39 µM
- TGI (CCRF-CEM [14]): 9.55 µM
- inhibition of growth at 10 µM (MCF7 [15]): 57.6%
- growth inhibition (GI) (HL-60(TB)): Active
- inhibition of growth at 10 µM (SK-MEL-2): 16.4%
- GI50 (MCF7 [16]): 6.46 µM
- LC50 (concentration killing 50% of cells) (MCF7 [16]): > 100 µM
- TGI (MCF7 [16]): 50.8 µM
- inhibition of growth at 10 µM [17]: 51.3%
- inhibition of growth at 10 µM [18]: 31.1%
- inhibition of growth at 10 µM [19]: 18.6%

SMILES: Cc1nc2cc(Nc3nc(Nc4ccc(F)cc4)nc(-c4cccs4)n3)ccc2n1Cc1ccccc1
- inhibition of growth at 10 µM [1]: 78%
- inhibition of growth at 10 µM (Malme-3M): 22.4%
- LC50 (concentration killing 50% of cells) (SR): > 100 µM
- inhibition of growth at 10 µM [2]: 49%
- inhibition of growth at 10 µM [3]: 42.7%
- inhibition of growth at 10 µM [20]: 30.5%
- inhibition of growth at 10 µM [4]: 27.9%
- inhibition of growth at 10 µM [5]: 47.8%
- CC50 [6]: > 100 µM
- growth inhibition (GI) (RPMI-8226): Active
- inhibition of growth at 10 µM (K562): 56.9%
- inhibition of growth at 10 µM (NCI-H226): 35%
- inhibition of growth at 10 µM (A549): 56.9%
- inhibition of growth at 10 µM (CCRF-CEM [8]): 72.8%
- Tm (Calf thymus DNA): 68.5 °C
- GI50 [9]: 8.83 µM
- LC50 (concentration killing 50% of cells) [9]: 75.7 µM
- TGI [9]: 27.3 µM
- inhibition of growth at 10 µM (KM12): 74.8%
- inhibition of growth at 10 µM [21]: 70.6%
- inhibition of growth at 10 µM [10]: 48.1%
- inhibition of growth at 10 µM (NCI-H460): 60.4%
- inhibition of growth at 10 µM (MDA-MB-231): 30.9%
- inhibition of growth at 10 µM (SK-MEL-5): 23.5%
- inhibition of growth at 10 µM (NCI-H522): 46.5%
- CC50 [11]: > 100 µM
- inhibition of growth at 10 µM [22]: 37.3%
- inhibition of growth at 10 µM [12]: 69.7%
- inhibition of growth at 10 µM [13]: 33.3%
- LC50 (CCRF-CEM [14]): > 100 µM
- GI50 (CCRF-CEM [14]): 2.59 µM
- TGI (CCRF-CEM [14]): 9.49 µM
- inhibition of growth at 10 µM (MCF7 [15]): 67.1%
- inhibition of growth at 10 µM (SK-MEL-2): 27.1%
- GI50 (MCF7 [16]): 5.24 µM
- LC50 (concentration killing 50% of cells) (MCF7 [16]): 79.2 µM
- TGI (MCF7 [16]): 21.9 µM
- inhibition of growth at 10 µM [23]: 38.5%
- inhibition of growth at 10 µM [17]: 51.7%
- inhibition of growth at 10 µM [18]: 42.5%
- inhibition of growth at 10 µM [19]: 24.8%

SMILES: Cc1nc2ccc(Nc3nc(NCCN)nc(Nc4ccc(F)cc4)n3)cc2n1Cc1ccccc1
- inhibition of growth at 10 µM [1]: 56.8%
- inhibition of growth at 10 µM (Malme-3M): 26%
- growth inhibition (GI) (OVCAR-4): inactive
- inhibition of growth at 10 µM [20]: 17%
- growth inhibition (GI) (HCC 2998): inactive
- inhibition of growth at 10 µM [5]: 20%
- inhibition of growth at 10 µM [7]: 46.2%
- inhibition of growth at 10 µM (K562): 61.3%
- inhibition of growth at 10 µM (NCI-H226): 13.8%
- inhibition of growth at 10 µM (A549): 13.2%
- inhibition of growth at 10 µM (CCRF-CEM [8]): 51.9%
- inhibition of growth at 10 µM (KM12): 26.8%
- inhibition of growth at 10 µM [21]: 26.9%
- inhibition of growth at 10 µM [10]: 11.6%
- inhibition of growth at 10 µM (NCI-H460): 21.8%
- inhibition of growth at 10 µM (MDA-MB-231): 42.9%
- inhibition of growth at 10 µM (SK-MEL-5): 25.5%
- inhibition of growth at 10 µM (NCI-H522): 31%
- inhibition of growth at 10 µM (NCI-H23): 10.4%
- inhibition of growth at 10 µM [22]: 26.1%
- growth inhibition (GI) (HCT-15): inactive
- inhibition of growth at 10 µM [13]: 6.85%
- inhibition of growth at 10 µM (MCF7 [15]): 39.1%
- inhibition of growth at 10 µM (SK-MEL-2): 19.9%
- inhibition of growth at 10 µM [23]: 9.33%
- inhibition of growth at 10 µM [17]: 0.38%
- inhibition of growth at 10 µM [18]: 15.9%
- inhibition of growth at 10 µM [19]: 8.56%
